{"source": "patent US20030198611A1", "about": "“Method of treating onychomycosis with urea and an antioxidant” (Bradley Pharmaceuticals, Inc., priority 2002, published 2003)", "tested_on": "fungi", "experiment": "antifungal potency of urea compared with known antifungal agents", "conditions": "no method or data given"}
{"smiles": "NC(N)=O", "note": "[urea]", "values": [{"measurement": "antifungal potency relative to known antifungal agents", "result": "equal potency to known antifungal agents"}]}
